Measured values: US20260209305A1, “THERAPEUTIC EXPLOITATION OF STING CHANNEL ACTIVITY” (The Broad Institute Inc., priority 2022, published 2026)

Experiments:
STING [1] = biological target: T1, STING (Homo sapiens, UniProt Q86WV6); assay: STING-induced autophagy: LC3 lipidation, RFP-LC3 imaging in FIP200 KO 293T cells and western blot in BJ1 cells; assay type: cell-based; parameters: expressed in transfected cells; host or cells: FIP200 KO 293T cells, lentiviral transduction; conditions: 1 hour; for LC3 lipidation upon agonist treatment: 20 ug/ml cGAMP, 40 μM MSA2 or 1 μM diABZI
Procedure: Cells were then fixed with 2% Paraformaldehyde (Electron Microscopy Sciences) in PHEM buffer (Electron Microscopy Sciences) for 30 minutes at 37° C., washed three times with PBS and quenched with freshly prepared 0.1M Glycine for 10 minutes. Coverslips were then permeabilized and blocked with 1× perm/stain buffer (10% goat serum (Thermo Fisher) in PBS, 0.5% BSA (Seracare), 0.05% Saponin from quillaja barka (Sigma)) for 30 minutes. […] Coverslips were then washed 5 times, mounted with Fuoromont-G, with DAPI (Thermo Fisher) and dried at 37° C. for one hour. Images were acquired on Olympus. Images were acquired on an Olympus IX83 using an Olympus UApo 40× objective controlled by Fluoview software.
Western Blotting: BJ1 cells were seeded at 0.15 million cells/well density in a 24 well plate the night before stimulation. […] Cells were then harvested and lysed in 100 ul of 1×SDS sample buffer (Boston Bio, #BP111NR).
Cells were segmented by thresholding the DAPI signal to identify nuclei and expanding the resulting regions using the seeded watershed method. Cells were segmented based on background in the Lysosensor, LC3B-RFP, and NLRP3 mNeonGreen channels. For the live-cell imaging and NLRP3 stimulation experiments, background was subtracted using the rolling ball algorithm. Puncta or Golgi structures enhanced using a Laplacian of Gaussian filter with sigma=12 (live-cell), sigma=8 (NLRP3), or sigma=7 (LC3B).

NLRP3 = assay: NLRP3-mNeongreen reporter: NLRP3 puncta in 293T cells expressing STING-HA; assay type: cell-based, human; conditions: 1 μM diABZI, 1 hour
NLRP3 inflammasome = assay: Inflammasome activation and IL-1ß release in primary human monocytes; assay type: cell-based
STING [2] = biological target: T1, STING; assay: Organelle pH measurement (Lysosensor) after STING activation in BJ1 cells; assay type: cell-based; conditions: human fibroblasts (BJ1), 1 μM diABZI, 1 hr
Procedure: Organelle pH Measurements and Image Acquisition: hTERT-immortalized BJ1 cells (ATCC CRL-2522) were plated in 24-well glass-bottom plates (Greiner Bio-One). After 24 hours, cells were stained for 30 minutes at 37° C. with 5 μM Lysosensor (Thermo Fisher Scientific cat #L7535), […] Hoechst (Thermo Fisher Scientific, cat. #62249), and 1 μM Bodipy TR Ceramide (Thermo Fisher Scientific cat #B34400) for Golgi labeling or 100 nM Lysotracker Deep Red (Thermo Fisher Scientific cat #L12492) for endolysosome labeling in Phenol-free DMEM medium with 10% FBS and 1% Pen-Strep. Cells were then washed five times with Phenol-free DMEM medium and stimulated with 1 μM DIABZI for 1 hr with or without the addition of 10 μM C53. […] An LED light engine (Lumencor CELESTA Light Engine) was used for fluorescence illumination and all hardware was controlled using NIS elements software. […]
Given the necessity of both the STING transmembrane domain and its translocation for autophagy induction, it was investigated whether the entire STING protein could cause ion leakage by either inducing membrane damage resulting in a secondary ion imbalance or by directly acting as an ion channel. […] The possibility that STING directly behaves as a channel for proton release into the cytosol upon translocation to the Golgi was assessed, the Golgi being an acidic compartment (Linders et al. 2022). […]

STING [3] = assay: p-STING and LC3B lipidation immunoblot in 293T cells expressing WT STING, STING AQQA or TMEM192-STING-LBD; assay type: cell-based, human; conditions: 293T cells expressing the STING construct
Procedure: Genes that are essential for mediating STING-induced autophagy were systematically identify, with a special interest in identifying potential transporters responsible for ion leakage. […] A genome-wide CRISPR fluorescence-activated cell sorting (FACS) screen was carried out using HEK293T cells expressing RFP-LC3 and STING-HA with FIP200 knocked out in order to reduce background signal from basal autophagy. Following transduction with the sgRNA library, cells were stimulated with diABZI to induce STING activation and STING-HA+ cells were sorted into LC3− and LC3+ bins (FIG. 1A) to specifically identify genes that altered CASM activation without affecting STING activation. […] The STING itself may have mediated Golgi/endosomes proton leakage critical for subsequent assembly of V-ATPase and recruitment of ATG16L1 to initiate CASM (Xu et al. 2019). In order to assess this, whether the STING ligand-binding domain (LBD), which has been proposed to recruit LC3 through its LR motifs (Gui et al. 2019; Liu et al. 2019), could induce autophagy upon translocation to Golgi/endosomes was first tested. Autophagy induction was tested in 293T cells by WT STING, a STING oligomerization-deficient mutant (A277Q/Q273A STING, termed AQQA), and an endolysosome-localized STING fusion protein (the endolysosomal protein TMEM192 fused with the STING LBD) upon agonist stimulation. […]

STING [4] = assay: RFP-LC3 induction and pSTING by FACS in HEK293T cells expressing STING WT or H50R; assay type: cell-based, human; conditions: mutant vs WT STING, FIP200 KO 293T cells, agonist stimulation
Procedure: FACS based genome-wide CRISPR screen and mutagenesis screen: FIP200 KO 293T cells were generated by transfecting 293T cells with pXPR_023 (Addgene #52961), encoding Cas9 and an sgRNA against FIP200 and selecting cells with 2 μg/ml puromycin (Thermo Fisher Scientific #A1113803) for two days. FIP200 KO 293T cells were then transduced with pTRIP-PGK-Hygro-P2A-RFP-LC3, treated with 33 μg/ml hygromycin (Invivogen, #ant-hg-1) for 3 days, and then sorted to get a homogenous RFP+ population.
Mutagenesis screen: RFP-LC3 FIP200 KO 293T cells were infected with saturated mutagenesis library lentivirus at MOI=0.2, and selected with 20 μg/ml blasticidin for 2 days. 150M transduced cells were treated with diABZI for 1.5 hr, and then permeabilized with 1× perm buffer (PBS with 0.05% saponin and 0.1% glycine) for 4 min. Permed cells are then washed with 1×PBS, and fix, perm, and stained using BD Cytofix/Cytoperm kit and anti-pSTING Alexa647 (CST, #43499) at 1:100 dilution.
A sorting strategy similar to the genome-wide CRISPR screen was followed, sorting populations of LC3− and LC3+ HEK293T cells within the pSTING+ cell population (FIG. 3E), thus ensuring that the sorted cell mutants enabled expression of functional STING able to translocate to Golgi/endosomes where phosphorylation of STING occurs (Dobbs et al. 2015). […]
Target sequence in this assay (Q86WV6 153-340 limits assumed): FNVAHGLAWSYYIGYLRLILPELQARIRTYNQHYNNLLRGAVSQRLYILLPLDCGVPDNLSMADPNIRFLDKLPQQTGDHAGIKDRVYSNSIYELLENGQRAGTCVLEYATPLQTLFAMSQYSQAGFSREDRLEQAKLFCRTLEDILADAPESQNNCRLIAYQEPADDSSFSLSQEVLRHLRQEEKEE

T1 sequence (Q86WV6 whole entry): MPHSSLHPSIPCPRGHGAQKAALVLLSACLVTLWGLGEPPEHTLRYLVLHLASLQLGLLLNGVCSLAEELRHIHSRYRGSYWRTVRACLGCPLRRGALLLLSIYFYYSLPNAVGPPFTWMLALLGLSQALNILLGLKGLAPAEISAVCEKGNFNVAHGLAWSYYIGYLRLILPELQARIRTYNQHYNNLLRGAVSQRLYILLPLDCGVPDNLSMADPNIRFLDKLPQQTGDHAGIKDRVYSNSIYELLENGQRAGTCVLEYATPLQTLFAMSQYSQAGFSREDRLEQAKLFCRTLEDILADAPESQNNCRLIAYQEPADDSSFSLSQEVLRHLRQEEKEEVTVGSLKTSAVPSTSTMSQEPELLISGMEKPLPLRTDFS

In the case of `COc1cc2cc(C(=O)CCC(=O)O)sc2cc1OC` [MSA2], the “LC3 lipidation upon agonist treatment” value (STING [1]) is reported as “LC3 lipidation was induced”.

For `CO[C@@H]1C[C@@H](C[C@H]2CC[C@H](C)[C@H]([C@@H](C)C(=O)O)O2)O[C@]2(O[C@](C)([C@H]3CC[C@@](C)([C@@H]4O[C@@H]([C@H]5O[C@@](O)(CO)[C@H](C)C[C@@H]5C)C[C@@H]4C)O3)C[C@H]2C)[C@@H]1C` [Nigericin], the “LC3 lipidation by independent ionophore stimulus” value (STING [1]; BJ1 cells, 2 μM Nigericin) was “induction of LC3 lipidation”.

For `CCn1nc(C)cc1C(=O)Nc1nc2cc(C(N)=O)cc(OC)c2n1C/C=C/Cn1c(NC(=O)c2cc(C)nn2CC)nc2cc(C(N)=O)cc(OCCCN3CCOCC3)c21` [diABZI], the “NLRP3 translocation upon stimulation” value (NLRP3) was “NLRP3 translocated from the cytoplasm to perinuclear vesicles”, the “IL-1ß release upon STING agonist stimulation” value (NLRP3 inflammasome) was “induced” and the “LC3 lipidation upon agonist treatment” value (STING [1]) was “LC3 lipidation was induced”. For the same molecule, the “fluorescence within the endolysosomal compartment” value (STING [2]) was “only modestly altered” and the “pH within the Golgi apparatus (decreased fluorescence of Lysosensor Green dye)” value (STING [2]) was “significant increase in pH”.

“AQQA: STING oligomerization-deficient mutant (A277Q/Q273A STING)” was tested, and the “autophagy induction (LC3B lipidation) upon agonist stimulation” value (STING [3]) was “impaired LC3B lipidation”.

For “STING H50R: human STING polypeptide with H50R substitution in TM2, inside the pore area”, the “LC3 induction within pSTING+ cells (STING-induced autophagy)” value (STING [4]) was “reduced” and the “LC3 induction within pSTING+ cells (STING-induced autophagy)” value (STING [4]; listed as H50R) was “strongly inhibit”.

In the case of cyclic GMP-AMP [cGAMP], the “IL-1ß release upon STING agonist stimulation” value (NLRP3 inflammasome) is reported as “induced”.
